Laboratory results from patent US4550186A, “Binuclear copper (II) carboxylates formed from amine-carboxyboranes” (Duke University, priority 1983, dated 1985).
Like-named read-outs stand apart in the source and are kept apart here.

How the values were obtained:
[1] = target: T1, orotidine monophosphate decarboxylase (Mus musculus, UniProt P13439); assay: In vivo orotidine monophosphate decarboxylase activity
T1 construct: OMP decarboxylase domain of UMP synthase
Experimental: CF1 male mice (~30 g) were implanted with 2×10^6 Ehrlich ascites tumor cells, intraperitoneally on Day 0. Compound I was suspended by homogenation in 0.05% polysorbate.80-water and administered intraperitoneally at 10 and 20 mg/kg for 9 days to determine its effectiveness for inhibition of tumor growth. Mice were sacrificed on Day 10, and the ascites fluid was collected from the peritoneal cavity. The volume and ascrit (packed cell volume) were determined for each animal and the percent inhibition of tumor growth was calculated. For the metabolic studies, mice were treated on Days 8 and 9 with 10 mg/kg of Compound I, intraperitoneally. […]
Carbamyl phosphate synthetase activity was determined using the reaction medium of Kalman et al [Am. […] Citrulline formed from ornithine was measured at 490 nm by the method of Archibald [J. Biol. Chem., 156, 121 (1944)]. […] The ^14 CO2 generated in 15 min was trapped in 1M KOH and counted. Thymidylate synthetase activity was determined using a post-mitochondrial supernatant (9000 g×10 min) and 5 μCi of 5-^3 H-deoxyuridine monophosphate (14 Ci/mmol) according to the method of Kampf et al [ J. Med. Chem., 19, 903 (1976)]. ^14 C-Formate incorporation into purines was determined by the method of Spassova et al [Biochem. Pharmacol., 25, 923 (1976)] using 0.5 μCi of ^14 C-formic acid (52.0 mCi/mmol). […] The Rf value for xanthine monophosphate was scraped and counted. […]

[2] = test system: ribonucleic acid synthesis of Ehrlich ascites cells; assay: In vitro whole cell incorporation: ribonucleic acid synthesis; assay type: cell-based, mouse; conditions: preliminary, 60 min, read-out: ID50, ribonucleic acid synthesis
Experimental: CF1 male mice (~30 g) were implanted with 2×10^6 Ehrlich ascites tumor cells, intraperitoneally on Day 0. Compound I was suspended by homogenation in 0.05% polysorbate.80-water and administered intraperitoneally at 10 and 20 mg/kg for 9 days to determine its effectiveness for inhibition of tumor growth. Mice were sacrificed on Day 10, and the ascites fluid was collected from the peritoneal cavity. The volume and ascrit (packed cell volume) were determined for each animal and the percent inhibition of tumor growth was calculated. For the metabolic studies, mice were treated on Days 8 and 9 with 10 mg/kg of Compound I, intraperitoneally. The animal was sacrificed on Day 10 and the ascites fluid harvested. The in vitro metabolic studies were performed at […] final concentration of Compound I.
In vitro incorporation of ^3 H-thymidine, ^3 H-uridine, or ^3 H-leucine was determined using 10^6 Ehrlich ascites cells, 1 μCi labeled precursor, minimum essential medium and varying final concentrations of drug from 0.25-1.0 mM. The tubes were incubated at 37° C. for 60 min and inactivated by trichloroacetic acid. The acid insoluble labeled deoxyribonucleic acid was collected on GF/F glass filter discs and ribonucleic acid and protein were precipitated on nitrocellulose filters by vacuum suction. Results are expressed as dpm of incorporated precursor per hour per 10^6 cells.

T1 sequence (P13439 whole entry, the tested form may be a part): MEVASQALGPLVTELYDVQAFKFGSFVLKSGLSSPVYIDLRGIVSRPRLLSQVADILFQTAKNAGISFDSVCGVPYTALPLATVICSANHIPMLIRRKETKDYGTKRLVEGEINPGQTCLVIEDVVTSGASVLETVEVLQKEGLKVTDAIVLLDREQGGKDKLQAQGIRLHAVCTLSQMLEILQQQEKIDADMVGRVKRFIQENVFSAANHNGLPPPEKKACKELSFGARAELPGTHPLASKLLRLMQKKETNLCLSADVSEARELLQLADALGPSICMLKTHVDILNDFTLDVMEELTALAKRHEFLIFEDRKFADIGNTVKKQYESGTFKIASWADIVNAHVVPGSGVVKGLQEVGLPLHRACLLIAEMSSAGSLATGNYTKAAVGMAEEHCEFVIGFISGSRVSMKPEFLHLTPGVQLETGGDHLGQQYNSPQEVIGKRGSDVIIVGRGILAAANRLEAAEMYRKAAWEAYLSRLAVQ

{Cu[(CH3)3 N.BH2 CO2 ]2.(CH3)3 N.BH2 COOH} [Compound I]
Orotidine monophosphate decarboxylase activity [1]: not affected
Orotidine monophosphate decarboxylase activity ([1]; 10 mg/kg/day I.P. on Days 8 and 9): 106 ± 9 % Control
IC50 [2]: 1820 µM
